≈ marks a conversion by molar mass, not a printed value.
Legend:
Format in all cases: cell-based, Mycobacterium tuberculosis
[1] = test system: PP1S-resistant M. tuberculosis
[2] = test system: PP2S-resistant M. tuberculosis
M. tuberculosis H37Rv = conditions: at 200 μg/ml and above

Q: With `CCCCOc1ccc2cc(CN3C(=O)CC[C@H]3C(=O)OC)c3cc(OC)c(OC)cc3c2c1` [PP2S, Methyl (S)-1-((3-butoxy-6,7-dimethoxyphenanthren-9-yl)methyl)-5-oxopyrrolidine-2-carboxylate] as the compound, how does the MIC [1] read?
A: Its MIC is greater than 100 µg/mL.

Q: And the MIC [2]?
A: The MIC was greater than 100 µg/mL.

Q: And the “occurrence of resistant strains” value (M. tuberculosis H37Rv)?
A: The value was “did not occur directly”.

Q: Which MIC [1] does the source give for `COC(=O)[C@@H]1CCC(=O)N1Cc1cc2ccc(OCc3ccccc3)cc2c2cc(OC)c(OC)cc12` [PP3S, Methyl (S)-1-{[3-(Benzyloxy)-6,7-dimethoxy-9-phenanthryl]methyl}-5-oxopyrrolidine-2-carboxylate] here?
A: Its MIC is greater than 100 µg/mL.

Q: And the MIC [2]?
A: The MIC was greater than 100 µg/mL.

Q: For `COC(=O)[C@@H]1CCC(=O)N1Cc1cc2ccc(OC)cc2c2cc(OC)c(OC)cc12` [PP1S, (S)-N-[(2,3,6-Trimethoxy-10-phenanthryl)methyl]-pyroglutamic acid methyl ester], which MIC [1] is on record?
A: The MIC was greater than 100 µg/mL.

Q: What about the MIC [2] of the same compound?
A: Its MIC is greater than 100 µg/mL.

Q: For `NC(=O)c1cnccn1` [PZA, pyrazinamide], which MIC [1] is on record?
A: The MIC was greater than 100 µg/mL.

Q: What about the MIC [2] of the same compound?
A: Its MIC is greater than 100 µg/mL.

Q: For `[H]/N=C(/N)N[C@H]1[C@H](O)[C@@H](O)[C@H](O[C@@H]2O[C@@H](C)[C@](O)(C=O)[C@H]2O[C@@H]2O[C@@H](CO)[C@H](O)[C@@H](O)[C@@H]2NC)[C@@H](N/C(N)=N\[H])[C@@H]1O` [STR, streptomycin], which MIC [1] is on record?
A: Its MIC is 0.2 µg/mL (≈ 0.344 µM).

Q: What about the MIC [2] of the same compound?
A: The MIC was 0.4 µg/mL (≈ 0.688 µM).

Q: For `NNC(=O)c1ccncc1` [INH, isoniazid, reference compound], which MIC [1] is on record?
A: The MIC was 0.2 µg/mL (≈ 1.46 µM).

Q: What about the MIC [2] of the same compound?
A: The MIC was 0.4 µg/mL (≈ 2.92 µM).

Q: Which results are given for `CO[C@H]1/C=C/O[C@@]2(C)Oc3c(C)c(O)c4c(O)c(c(/C=N/N5CCN(C)CC5)c(O)c4c3C2=O)NC(=O)/C(C)=C\C=C\[C@H](C)[C@H](O)[C@@H](C)[C@@H](O)[C@@H](C)[C@H](OC(C)=O)[C@@H]1C` [RIF, rifampicin, reference compound]?
A: MIC [1]: 0.1 µg/mL (≈ 0.122 µM); MIC [2]: 0.2 µg/mL (≈ 0.243 µM)

Q: With `CC[C@@H](CO)NCCN[C@@H](CC)CO` [EMB, ethambutol] as the compound, how does the MIC [1] read?
A: The MIC was 1.6 µg/mL (≈ 7.83 µM).

Q: What about the MIC [2] of the same compound?
A: Its MIC is 1.6 µg/mL (≈ 7.83 µM).

From paper PMC9154192 (PLoS Biology, 2022)
